# Measured values published in US20260109707A1, “HETEROBIFUNCTIONAL COMPOUNDS AND METHODS OF TREATING DISEASE” (Halda Therapeutics OpCo. Inc., priority 2022, published 2026).
# Read-outs that look alike come from different tables or passages of the source.
# Assays:
# [1] = test system: T-Rex 293 cell line SC3 cells having increased expression of androgen receptor protein due to exposure to doxycycline; test: Cellular growth inhibition assay, T-Rex 293 SC3 cells with doxycycline (CellTiter-Glo, 72 hours); format: cell-based; details: 72 h, T-Rex 293 SC3 cells with increased androgen receptor expression due to doxycycline (10 ng/mL)
# Procedure, shortened: (§1)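 Growth inhibition is measured in an inducible AR-expressing T-Rex 293 clone, SC3, cultured with or without 10 ng/mL doxycycline in hormone-depleted medium. Test compounds are applied for 72 hours. GI50 values derive from CellTiter-Glo 2.0 signal fitted by four-parameter regression.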
# [2] = test system: T-Rex 293 cell line SC3 cells lacking increased expression of androgen receptor protein; test: Cellular growth inhibition assay, T-Rex 293 SC3 cells without doxycycline (CellTiter-Glo, 72 hours); format: cell-based; details: T-Rex 293 cell line SC3 cells not exposed to doxycycline (lacking increased androgen receptor expression)
# Procedure, shortened: as §1
# VCaP cells = test: Cellular growth inhibition assay for VCaP cells (CellTiter-Glo, 72 hours); format: cell-based, human
# Procedure, shortened: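 Luminescent viability signal after 72 h of compound exposure gave GI50 values by four-parameter nonlinear regression. Compounds were added in 0.5% DMSO to cells plated 24 h earlier at 5000/well in DMEM containing 10% FBS.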
# T47D cells = test: Cellular growth inhibition assay for T47D cells (CellTiter-Glo, 72 hours); format: cell-based, human; details: 72 hours treatment
# Method: T47D cells were purchased from American Type Cell Culture (ATCC Cat #HTB-133) and then seeded on poly-D-lysine coated, black clear-bottom 384-well plates at 3000/well in 25 μL Dulbecco's Modified Eagle Medium (DMEM) supplemented with 10% w/w Fetal bovine serum (FBS), 0.2 units/mL recombinant human insulin (Gibco Cat #12585014), and 1% w/w Pen-Strep. Pen-Strep is a commercially available mixture of penicillin G and streptomycin, which is used in mammalian cell culture media to prevent bacterial contamination. Dulbecco's Modified Eagle Medium (DMEM) supplemented with 10% w/w fetal bovine serum (FBS), 0.2 units/mL recombinant human insulin, and 1% w/w Pen-Strep is herein referred to as Treatment Medium. Following seeding of cells in the plates, the plates were spun at 300×g for 30 seconds, then equilibrated to room temperature for 30 minutes, and then deposited in a humidified tissue culture incubator maintained at 37° C. with 5% CO2.
# At 24 hours after seeding of the cells, dilutions of test compound were prepared in DMSO and dissolved in Treatment Medium, to achieve a final DMSO concentration of 0.5% w/w, thereby providing the Test Compound Solution. A 25 μL aliquot of the Test Compound Solution was added to cells in the well plates. An equal volume of a solution containing DMSO and Treatment Medium was used as a negative control. Following treatment of cells with Test Compound Solution or said equal volume of a solution containing DMSO and Treatment Medium, the plates were spun at 300×g for 30 seconds, and then left in an incubator for 72 hours.
# At the end of the treatment duration, cell viability was quantified with CellTiter-Glo 2.0 reagent (Promega Cat #G9243). For this purpose, plates were equilibrated to room temperature for 30 minutes, and then 25 μL of CellTiter-Glo 2.0 reagent was added to cells in the plate wells. Plates were then agitated on a shaker for two minutes at 500 rpm and subsequently incubated at room temperature for 10 minutes. Following incubation, the plates were spun at 3000×g for 30 seconds, then sealed with an optical adhesive cover, and luminescence readings were measured with an EnVision Plate Reader (Perkin Elmer).
# Data was normalized using zero luminescence for baseline. A four-parameter non-linear regression curve fit was applied to dose-response data in GraphPad Prism data analysis software to determine the half-maximal growth inhibitory concentration (GI50) for each test compound.
Structure (SMILES),"GI50 (VCaP cells; Homo sapiens, VCaP, 72 h) [nM]","GI50 (T47D cells; Homo sapiens, T47D, 72 h) [nM]",GI50 (VCaP cells) [nM],GI50 (T47D cells) [nM],GI50 [1] [nM],GI50 ([2]; 72 h) [nM],GI50 [2] [nM]
Cc1sc2c(c1C)C(c1ccc(O[C@H]3C[C@]4(CCCN(c5ccc(C(=O)N[C@H]6CC[C@H](Oc7ccc(C#N)c(Cl)c7)CC6)nn5)C4)C3)cc1)=N[C@@H](Cc1ncco1)c1nnc(C)n1-2 [I-93],< 500,500 to 1500,,,< 500,< 500,
Cc1sc2c(c1C)C(c1ccc(O[C@H]3CC[C@]4(CCCN(c5ccc(C(=O)N[C@H]6CC[C@H](Oc7ccc(C#N)c(Cl)c7)CC6)nn5)C4)C3)cc1)=N[C@@H](Cc1ncco1)c1nnc(C)n1-2 [I-97],< 500,< 500,,,< 500,< 500,
Cc1sc2c(c1C)C(c1ccc(O[C@@H]3CC[C@]4(CCCN(c5ccc(C(=O)N[C@H]6CC[C@H](Oc7ccc(C#N)c(Cl)c7)CC6)nn5)C4)C3)cc1)=N[C@@H](Cc1ncco1)c1nnc(C)n1-2 [I-98],< 500,< 500,,,< 500,< 500,
Cc1sc2c(c1C)C(c1ccc(OC[C@H]3CC[C@@]4(CCCN(c5ccc(C(=O)N[C@H]6CC[C@H](Oc7ccc(C#N)c(Cl)c7)CC6)nn5)C4)C3)cc1)=N[C@@H](Cc1ncco1)c1nnc(C)n1-2 [I-102],< 500,< 500,,,< 500,< 500,
Cc1sc2c(c1C)C(c1ccc(OC[C@@H]3CC[C@@]4(CCCN(c5ccc(C(=O)N[C@H]6CC[C@H](Oc7ccc(C#N)c(Cl)c7)CC6)nn5)C4)C3)cc1)=N[C@@H](Cc1ncco1)c1nnc(C)n1-2 [I-103],< 500,< 500,,,< 500,< 500,
Cc1sc2c(c1C)C(c1ccc(OC[C@H]3C[C@]4(CCCN(c5ccc(C(=O)N[C@H]6CC[C@H](Oc7ccc(C#N)c(Cl)c7)CC6)nn5)C4)C3)cc1)=N[C@@H](Cc1ncco1)c1nnc(C)n1-2 [I-104],,,< 500,< 500,< 500,,< 500
CNc1ccc2c(n1)C(c1ccc(OC3CC4(CCN(c5ccc(C(=O)N[C@H]6CC[C@H](Oc7ccc(C#N)c(Cl)c7)CC6)nn5)CC4)C3)cc1)=NCc1onc(C)c1-2 [I-106],< 500,> 3000,,,< 500,> 3000,
CNc1ccc2c(n1)C(c1ccc(OC3CC4(CCCN(c5ccc(C(=O)N[C@H]6CC[C@H](Oc7ccc(C#N)c(Cl)c7)CC6)nn5)C4)C3)cc1)=NCc1onc(C)c1-2 (stereo partly shown) [I-107],> 3000,> 3000,,,< 500,> 3000,
Cc1sc2c(c1C)C(c1ccc(CC3CC4(CCN(c5ccc(C(=O)N[C@H]6CC[C@H](Oc7ccc(C#N)c(Cl)c7)CC6)nn5)CC4)C3)cc1)=N[C@H](Cc1ncco1)c1nnc(C)n1-2 [I-111],< 500,> 3000,,,< 500,> 3000,
Cc1sc2c(c1C)C(c1ccc(CC3CN(CC4CCN(c5ccc(C(=O)N[C@H]6CC[C@H](Oc7ccc(C#N)c(Cl)c7)CC6)nn5)CC4)C3)cc1)=N[C@H](Cc1ncco1)c1nnc(C)n1-2 [I-114],500 to 1500,500 to 1500,,,< 500,1500 to 3000,
Cc1sc2c(c1C)C(c1ccc(CC3CN([C@@H]4CCN(c5ccc(C(=O)N[C@H]6CC[C@H](Oc7ccc(C#N)c(Cl)c7)CC6)nn5)C4)C3)cc1)=N[C@@H](Cc1ncco1)c1nnc(C)n1-2 [I-115],< 500,< 500,,,< 500,< 500,
Cc1sc2c(c1C)C(c1ccc(C[C@H]3C[C@@]4(CCCN(c5ccc(C(=O)N[C@H]6CC[C@H](Oc7ccc(C#N)c(Cl)c7)CC6)nn5)C4)C3)cc1)=N[C@@H](Cc1ncco1)c1nnc(C)n1-2 [I-118],1500 to 3000,1500 to 3000,,,> 3000,> 3000,
Cc1sc2c(c1C)C(c1ccc(C[C@H]3C[C@@H](C4CCCN(c5ccc(C(=O)N[C@H]6CC[C@H](Oc7ccc(C#N)c(Cl)c7)CC6)nn5)C4)C3)cc1)=N[C@@H](Cc1ncco1)c1nnc(C)n1-2 (stereo partly shown) [I-120],> 3000,< 500,,,< 500,> 3000,

# The next lines start with results.
"GI50 (VCaP cells; Homo sapiens, VCaP, 72 h) [nM]","GI50 (T47D cells; Homo sapiens, T47D, 72 h) [nM]",GI50 (VCaP cells) [nM],GI50 (T47D cells) [nM],Structure (SMILES),GI50 [1] [nM],GI50 ([2]; 72 h) [nM],GI50 [2] [nM]
< 500,< 500,,,Cc1sc2c(c1C)C(c1ccc(OC3CC4(C3)CN(c3ccc(C(=O)N[C@H]5CC[C@H](Oc6ccc(C#N)c(Cl)c6)CC5)nn3)C4)cc1)=N[C@@H](Cc1ncco1)c1nnc(C)n1-2 [I-91],< 500,< 500,
< 500,500 to 1500,,,Cc1sc2c(c1C)C(c1ccc(O[C@H]3C[C@@]4(CCCN(c5ccc(C(=O)N[C@H]6CC[C@H](Oc7ccc(C#N)c(Cl)c7)CC6)nn5)C4)C3)cc1)=N[C@@H](Cc1ncco1)c1nnc(C)n1-2 [I-92],< 500,< 500,
< 500,< 500,,,Cc1sc2c(c1C)C(c1ccc(O[C@H]3CC[C@@]4(CCCN(c5ccc(C(=O)N[C@H]6CC[C@H](Oc7ccc(C#N)c(Cl)c7)CC6)nn5)C4)C3)cc1)=N[C@@H](Cc1ncco1)c1nnc(C)n1-2 [I-96],< 500,< 500,
< 500,< 500,,,Cc1sc2c(c1C)C(c1ccc(OC3CN(C4CCN(c5ccc(C(=O)N[C@H]6CC[C@H](Oc7ccc(C#N)c(Cl)c7)CC6)nn5)C4)C3)cc1)=N[C@@H](Cc1ncco1)c1nnc(C)n1-2 (stereo partly shown) [I-101],< 500,< 500,
< 500,< 500,,,Cc1sc2c(c1C)C(c1ccc(OC[C@H]3C[C@@]4(CCCN(c5ccc(C(=O)N[C@H]6CC[C@H](Oc7ccc(C#N)c(Cl)c7)CC6)nn5)C4)C3)cc1)=N[C@@H](Cc1ncco1)c1nnc(C)n1-2 [I-105],< 500,< 500,
< 500,< 500,,,Cc1sc2c(c1C)C(c1ccc(OC3CC4(CCN(c5ccc(C(=O)N[C@H]6CC[C@H](Oc7ccc(C#N)c(Cl)c7)CC6)cc5)CC4)C3)cc1)=N[C@@H](Cc1ncco1)c1nnc(C)n1-2 [I-108],< 500,< 500,
< 500,< 500,,,Cc1sc2c(c1C)C(c1ccc(CCOC3CCN(c4ccc(C(=O)N[C@H]5CC[C@H](Oc6ccc(C#N)c(Cl)c6)CC5)nn4)CC3)cc1)=NC(Cc1ncco1)c1nnc(C)n1-2 (stereo partly shown) [I-110],< 500,> 3000,
< 500,< 500,,,Cc1sc2c(c1C)C(c1ccc(CC3CC4(CCN(c5ccc(C(=O)N[C@H]6CC[C@H](Oc7ccc(C#N)c(Cl)c7)CC6)nn5)CC4)C3)cc1)=N[C@@H](Cc1ncco1)c1nnc(C)n1-2 [I-112],< 500,< 500,
< 500,< 500,,,Cc1sc2c(c1C)C(c1ccc(CC3CN(CC4CCN(c5ccc(C(=O)N[C@H]6CC[C@H](Oc7ccc(C#N)c(Cl)c7)CC6)nn5)CC4)C3)cc1)=N[C@@H](Cc1ncco1)c1nnc(C)n1-2 [I-113],< 500,500 to 1500,
< 500,< 500,,,Cc1sc2c(c1C)C(c1ccc(CC3CN([C@H]4CCN(c5ccc(C(=O)N[C@H]6CC[C@H](Oc7ccc(C#N)c(Cl)c7)CC6)nn5)C4)C3)cc1)=N[C@@H](Cc1ncco1)c1nnc(C)n1-2 [I-116],< 500,< 500,
< 500,< 500,,,Cc1sc2c(c1C)C(c1ccc(C[C@H]3C[C@]4(CCCN(c5ccc(C(=O)N[C@H]6CC[C@H](Oc7ccc(C#N)c(Cl)c7)CC6)nn5)C4)C3)cc1)=N[C@@H](Cc1ncco1)c1nnc(C)n1-2 [I-119],< 500,< 500,
> 3000,1500 to 3000,,,Cc1sc2c(c1C)C(c1ccc(C[C@H]3C[C@H](C4CCCN(c5ccc(C(=O)N[C@H]6CC[C@H](Oc7ccc(C#N)c(Cl)c7)CC6)nn5)C4)C3)cc1)=N[C@@H](Cc1ncco1)c1nnc(C)n1-2 (stereo partly shown) [I-121],1500 to 3000,> 3000,
